Each structure is given as a SMILES string. Where only a bound is given, the exact number is not on record here.

With `Cn1c([N+](=O)[O-])cnc1-c1nc(Cl)c2ccccc2n1`, the melting point was in the range of 178 to 181 °C.

In the case of `COc1cc(C(O)CN2CCC(O)(c3ccccc3)CC2)on1` (configuration not stated), the melting point fell in the range of 166 to 168 °C. In the case of `CCOC(=O)C(F)(F)C(O)C(CC(C)C)NC(=O)OC(C)(C)C` (configuration not stated) it was 72 to 76 °C; in that of `O=C1NN(C(=O)c2cc3ccccc3[nH]2)C(c2ccccc2)C1c1ccccc1` (configuration not stated), 248 to 250 °C; in that of `CC=Cn1c(=S)sc2c(=N)n(NC(=O)c3ccco3)cnc21`, 218 °C. In turn, `Cc1ncncc1C(=O)Nc1cnc(-n2nc(C(F)(F)F)cc2C2CC2)nc1` came in with a melting point of 201 to 203 °C. In the case of `O=C(O)CCC(=O)Nc1cc(C(=O)O)cc([N+](=O)[O-])c1` it was 220 to 221 °C; in that of `COc1ccc2[nH]c(C(=O)C3(c4ccc(Cl)cc4)CCCC3)cc2c1`, 157 to 159 °C. In the case of `O[C@@H]1CNCC[C@H]1Sc1ccccc1` (relative stereo) it was 135 to 136 °C; in that of `CS(=O)(=O)Oc1ccc([C@@H]2CCNC(=O)[C@H]2c2ccccc2)cc1` (relative stereo), 199 °C; in that of `CCCc1c(OCCCCCC(=O)NCCc2ccncc2)ccc(C(C)=O)c1O`, 80 to 83 °C. In the case of `CCCCNN1C=c2cc(-c3c(Cl)cccc3Cl)c(=O)n(C)c2=NC1` it was 184 to 186 °C.

The compound `CC1(C)CSCC(=O)N1` returned a melting point of 151 to 152 °C. In the case of `CC1(C)OCC(c2nc3c(C(F)(F)F)cccc3c(O)c2C(=O)Nc2nccs2)O1` (configuration not stated) it was 250 °C; in that of `Nc1nc(C(F)(F)F)nc2c1ncn2C1OC(CO)C(O)C1O` (configuration not stated), 173 to 175 °C. `COc1ccc(C=NO)c(Cl)c1O` showed a melting point of 174 to 176 °C. In the case of `O=C(O)Cc1cc2c([N+](=O)[O-])c(O)c(O)cc2oc1=O` it was above 350 °C; in that of `Cc1nsc2nc3ccccc3n12`, 192 to 193 °C. In the case of `COc1cc(OC)cc(N2CCN(C(=S)Nc3cc4c(nc3OC)CCC4)CC2)c1` it was 169 to 170 °C; in that of `CSc1nc(Cl)c(C#N)s1`, 83 to 87 °C. In the case of `CCOC(=O)c1nnc2c3ccc(Cl)cc3c(-c3ccccc3)nn12` it was 266 to 268 °C; in that of `COC(=O)Cc1nsc(NC(=O)OC)n1`, 167 to 169 °C. Regarding `CCOc1cc2ncc(C#N)c(Nc3ccc(OCc4ccccc4)c(Cl)c3)c2cc1NC(=O)CC(CN(C)C)N(C)C` (configuration not stated), the melting point was 102 to 104 °C. In the case of `O=c1[nH]c2ccc([N+](=O)[O-])cc2c(=O)n1CCCN1CC=C(c2ccc(Cl)cc2)CC1` it was 205 to 207 °C; in that of `NC(=O)c1ncn2c1[C@@H]1CCN1C(=O)c1c-2cccc1C(F)(F)F`, above 300 °C; in that of `CN(C)c1nc2cc(Cl)c(Cl)cc2n1C1CC(CO)C(O)C1O` (configuration not stated), 190 to 193 °C. For `Cc1cc(CNC(=O)c2sc(-n3cnn(Cc4ccc(F)cc4)c3=O)nc2C)[nH]n1`, the melting point was 234 to 235 °C. With `CC(C(=O)c1c(O)c2cccnc2n(-c2cccc(OC(F)(F)F)c2)c1=O)c1ccccc1` (configuration not stated), the melting point was in the range of 136 to 138 °C. In the case of `CS(=O)(=O)c1ccc(-c2nc(C(F)(F)F)nc(NN)c2-c2ccc(S(=O)(=O)NN)cc2)cc1` it was 203 to 206 °C. In the case of `Cc1c(=O)[nH]c(=O)n2cc(C(=O)O)sc12` it was above 205 °C. In the case of `O=C(O)C1CC(=O)N(Cc2ccccc2)C1C(=O)N(Cc1ccccc1)Cc1ccccc1` (configuration not stated) it was 123 to 125 °C. `CCCCCCC#CCC#CCC#CCC#CCCCC(=O)NO` returned a melting point of 85 to 88 °C. In the case of `Cc1cc2c(nc3n2CCC3)c([N+](=O)[O-])c1Br` it was 201 to 203 °C; in that of `N#Cc1ccc(-c2ccc(OCCCCCCO)cc2)cc1`, 87 to 89 °C; in that of `CCCCCCCCCCCCCCCCOc1cc(NS(=O)(=O)c2cc([N+](=O)[O-])ccc2N2CCOCC2)c(OC(C)=O)cc1C`, 95 to 96 °C. In the case of `CNC(=O)C(Cc1ccc(OC)cc1)NC(=O)C(C)(CC(C)C)c1cccc(C(F)(F)F)c1S` (configuration not stated) it was 88 to 102 °C. In the case of `CC(C)(O)C1CCN(S(=O)(=O)c2cc(C#N)ccc2Oc2cc(Cl)ccc2Cl)CC1` it was 221 to 225 °C; in that of `O=C(O)c1ccc(-n2cnnc2)cc1`, above 300 °C. The compound `COc1cc(-n2c(=O)cc(C(F)(F)F)n(N)c2=O)ccc1C#N` had a melting point above 230 °C. In the case of `COc1cccc2c(NCc3ccccc3C)nc(Cl)nc12` it was 279 to 281 °C. In the case of `COCCOc1cc(Cl)cnc1[N+](=O)[O-]` it was 71.5 to 72.5 °C; in that of `CCOC(CCN(C(=O)c1cccs1)c1nc(-c2cc(-c3ccccc3)no2)cs1)OCC`, 100 to 101 °C. In the case of `CCOC(=O)N1CCC(Nc2nc3ncnc(Cl)c3n2Cc2ccc(F)cc2)CC1` it was 127 °C. `O=[N+]([O-])c1cc(I)ccc1Nc1cccc(-n2cccn2)c1`: the melting point is 165 to 166 °C.

With `OC(Cn1cncn1)(Cn1cnc(C=Cc2ccc(C(F)(F)F)cc2)n1)c1ccc(Cl)cn1` (configuration not stated), the melting point lay in the range of 159 to 161 °C. In the case of `CC(=O)OC(C)(C)c1nnc(-c2ccc3ncn(-c4ccc(OC(F)(F)F)cc4)c3c2)o1` it was 150 to 151 °C; in that of `COc1cc2c3ccc(OC)c(OC)c3n(S(=O)(=O)c3ccc([N+](=O)[O-])cc3)c2cc1OC`, 188 to 189 °C. In the case of `O=C(O)CCC(=C1SCCCS1)c1ccc(Oc2ccccc2)cc1` it was 154 to 155 °C; in that of `COc1cc(OCc2ccc3c(c2)C(C)(C)CCC3(C)C)ccc1C(=O)OCc1ccccc1`, 112 to 113 °C; in that of `OCC(CBr)(CBr)CBr`, 67 to 69 °C. In the case of `CCCCCCCCCCCCCCCCCCOCCSCCOC(=O)NCc1ccccn1` it was 60 to 62 °C. Turning to `CC(=O)c1ccc(C2c3cc(NC(=O)CC(C)(C)C)c(C)c(C)c3OC2(C)C)cc1` (configuration not stated), the melting point was in the range of 195 to 196 °C.

In turn, `COCCS(=O)(=O)c1ccc(CCN2CC=C(c3c[nH]c(-c4ccc(F)c(Cl)c4)c3-c3ccncc3)CC2)cc1` returned a melting point of 208 to 210 °C. In the case of `Clc1cc(N2CCCC2)nc(NC23CC4CC(CC(C4)C2)C3)n1` it was 178 to 180 °C; in that of `CCOC(=O)c1cnc2c(OCc3ccccc3)c(F)c(F)cc2c1O`, 200 to 201 °C.

Regarding `CC(C)c1ccc(Oc2ccc(CCNc3ncnc4nccnc34)cc2)cc1`, the melting point is 105 to 106 °C. In the case of `COC(=O)c1ccc(OC)c(NC(=NCl)c2ccccc2)c1` it was 120 °C. As to `COC(=O)CC1Sc2ccc([N+](=O)[O-])cc2CN(CCc2ccccc2)C1=O` (configuration not stated), the melting point lay within 205 to 208 °C. In the case of `CC1CCc2ncc(-c3ccccc3)c(=O)n21` (configuration not stated) it was 118 to 122 °C. In the case of `Cc1cccc(NC(=O)NCC(=O)N(c2ccccc2)C(C(=O)OC(C)(C)C)c2cccc(Cl)c2)c1` (racemic) it was 100 °C; in that of `O=[N+]([O-])OCCNC(=S)Cc1ccccc1`, 63 to 65 °C. In the case of `NS(=O)(=O)c1cnc(-c2ccccc2)s1` it was 209 to 210 °C; in that of `CCN(CC)[C@@H]1CCC[C@H]1Nc1ccnc2cc(Cl)ccc12` (racemic), 186 to 190 °C; in that of `CN(CCC#N)C(=O)c1nc(Cl)c(Cl)[nH]1`, 184 °C. `COc1ccc(C(=O)C2=C(O)C(=O)N(c3ccc(C)nn3)C2c2ccc(OC(F)(F)F)cc2)cc1` (configuration not stated) showed a melting point of 265 °C. In turn, `CCCCc1[nH]c2ccc(OC)cc2c1C(=O)c1ccc(OC)cc1` gave a melting point of 170 °C. In the case of `CCCn1c(=O)c2[nH]c(/C=C/c3ccc(OC)c(OC)c3)nc2n(CCC)c1=O` it was 196 °C; in that of `CC1(C)OC(=O)Nc2ccc(-c3cccc(C#N)c3)cc21`, 236 to 237 °C; in that of `CC1CN(c2ccc(NC=C3C(=O)NC(=O)c4ccc(Br)cc43)cc2)CC(C)N1` (configuration not stated), 229 to 230 °C. Consider `Cn1nc(-c2ccccc2S(=O)(=O)Cl)oc1=O`, for which the melting point is 122 to 125 °C. As for `O=C1c2ccccc2C(=O)N1CCCSc1ccccc1`, the melting point lay within 83 to 85 °C. In the case of `COc1ccc2c3c(c(=O)oc2c1)CN(Cc1ccc(Cl)cc1)CC3` it was 140 to 142 °C; in that of `CON=Cc1ccc2c(c1)ncn2-c1cccc(-c2nccs2)c1`, 154 to 160 °C; in that of `CN1CCN2c3ccccc3C(O)c3ccccc3C2C1` (configuration not stated), 137 to 138 °C. In the case of `Nc1nc2ccccc2c2c1nc1n2C(COc2ccccc2)COC1` (configuration not stated) it was 189 to 195 °C; in that of `O=[N+]([O-])c1ccc(CCN2CCN(C3CCc4ccccc4C3O)CC2)cc1` (configuration not stated), 155 to 159 °C; in that of `Cc1cc2c(cc1Sc1ccc(C(=O)O)cc1)C(C)(C)CCC2(C)C`, 253 to 254 °C.

`CCCCc1oc2ccc(CO)cc2c1C(=O)c1ccc(O)cc1`: the melting point fell in the range of 180 to 182 °C. In the case of `Cc1nc2ccc([N+](=O)[O-])cn2c(=O)c1CCCl` it was 170 °C; in that of `C[C@@]1(Cn2cc([N+](=O)[O-])nc2Br)CO1`, 93 to 94 °C; in that of `COc1cc(Cl)c2nc(-c3ccc(OC)c(F)c3)cc(Br)c2c1`, 156 to 157 °C. In the case of `CCN/C(=C1\C(=O)c2ccccc2S1=O)c1ccccc1` (configuration not stated) it was 183 to 185 °C.

The compound `CCCNC(=O)C(C)=Cc1ccc2c(c1)c(Cc1ccc(C(=O)O)cc1OC)cn2C` showed a melting point of 89 to 95 °C. In the case of `CCNC(=S)NCc1ccc(/C=C/C(c2cc(Cl)c(Cl)c(Cl)c2)C(F)(F)F)cc1Cl` (configuration not stated) it was 88 to 91 °C; in that of `CCCC(=O)Oc1ccc(-c2ccc(C#N)cc2)cc1`, 77.9 to 78.2 °C. On to `CCOc1ccc(-c2ccc3c(c2)C=C(C(=O)OC)CCN3C=O)cc1F`, for which the melting point was 126 to 128 °C. In the case of `CC(C)[C@H](NC(=O)N(C)Cc1ccccn1)C(=O)N[C@@H](Cc1ccccc1)[C@@H](O)C[C@H](Cc1ccccc1)NC(=O)OCc1cccnc1` it was 69 to 71 °C.

As a reminder, the melting point is the temperature, or range, at which the solid turns liquid.

For the origin of these results see a melting point compilation (Tetko et al.; mined from patent text by program, amines drawn as free bases though some values may be those of a salt).
